“And” between values parts separate entries of the source, which are not always exact repeats. Identical values can stand only once.
Tests used:
[1] = target: T1, AcmJRL (Ananas comosus, UniProt Q53J09); type: binding; conditions: for RFU: FITC‐labelled AcmJRL at 50 μg mL^−1, average RFU±s.d. from 6 replicates
T1 sequence (Q53J09 1-145): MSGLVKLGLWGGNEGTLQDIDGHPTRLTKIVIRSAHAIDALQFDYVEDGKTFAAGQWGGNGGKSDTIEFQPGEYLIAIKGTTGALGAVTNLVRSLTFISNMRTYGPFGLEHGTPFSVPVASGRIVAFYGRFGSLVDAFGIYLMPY

[2] = target: T1, AcmJRL; experiment: Reporter ligand displacement assay; type: binding; conditions: carbohydrate at 10 mM
[3] = tested on: AcmJRL−S‐protein interaction; type: binding, SARS‐CoV‐2
[4] = target: T2, AcmJRL (Ananas comosus, UniProt Q53J09); type: biochemical; conditions: SD, n = 3
T2 sequence (Q53J09 2-145): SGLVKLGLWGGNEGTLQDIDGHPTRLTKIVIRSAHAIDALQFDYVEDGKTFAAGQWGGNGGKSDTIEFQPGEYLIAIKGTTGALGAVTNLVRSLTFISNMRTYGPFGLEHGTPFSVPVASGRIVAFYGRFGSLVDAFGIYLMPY

[5] = target: T1, AcmJRL; experiment: Semiotik glycan array with Cy3-labelled AcmJRL; type: binding
[6] = target: SARS-CoV-2 spike RBD (SARS-CoV-2) (UniProt P0DTC2); experiment: SPR
[7] = target: human angiotensin-converting-enzyme-2 (ACE2) receptor, recombinant (human) (UniProt Q9BYF1); experiment: SPR
Chain of human angiotensin-converting-enzyme-2 (ACE2) receptor, recombinant (human) (Q9BYF1 18-740): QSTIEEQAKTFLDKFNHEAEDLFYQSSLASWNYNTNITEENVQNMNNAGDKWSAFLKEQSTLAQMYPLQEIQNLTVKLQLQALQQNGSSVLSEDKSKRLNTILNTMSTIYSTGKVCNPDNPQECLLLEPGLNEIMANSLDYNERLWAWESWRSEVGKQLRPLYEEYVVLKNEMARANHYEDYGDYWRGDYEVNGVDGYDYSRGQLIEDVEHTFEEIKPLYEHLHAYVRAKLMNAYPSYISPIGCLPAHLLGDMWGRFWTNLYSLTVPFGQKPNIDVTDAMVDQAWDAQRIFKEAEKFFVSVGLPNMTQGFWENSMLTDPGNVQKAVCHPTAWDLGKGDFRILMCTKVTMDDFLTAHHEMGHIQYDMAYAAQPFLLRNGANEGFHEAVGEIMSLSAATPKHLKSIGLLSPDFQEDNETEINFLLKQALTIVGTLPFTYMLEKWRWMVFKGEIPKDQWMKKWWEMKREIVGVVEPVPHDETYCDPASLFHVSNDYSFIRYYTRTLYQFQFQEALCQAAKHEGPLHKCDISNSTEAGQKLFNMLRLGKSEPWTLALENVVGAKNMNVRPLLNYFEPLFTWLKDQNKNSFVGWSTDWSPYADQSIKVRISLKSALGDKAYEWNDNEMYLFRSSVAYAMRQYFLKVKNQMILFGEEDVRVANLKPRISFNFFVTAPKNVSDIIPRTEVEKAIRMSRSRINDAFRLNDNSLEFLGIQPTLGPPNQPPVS

Q: With `OC[C@H]1O[C@H](O[C@H]2[C@H](O)[C@@H](O)[C@H](O)O[C@@H]2CO)[C@H](O)[C@@H](O)[C@@H]1O` [CFG‐GLYCAN ID 195, Glc‐α‐1,4‐Glc‐β] as the compound, how does the RFU [1] read?
A: The RFU was 33±5 RFU.

Q: `CC(=O)N[C@@H]1[C@@H](O)[C@H](O)[C@@H](CO)O[C@H]1O` [D-GlcNAc, N‐acetylglucosamine] was tested. Which “inhibition of AcmJRL, single concentration (in words)” value (“inhibition of AcmJRL” for short) [2] did it give?
A: The value was “confirmed as ligands”.

Q: Which “effect on AcmJRL binding to S-protein (in words)” value [3] does the source give for `OC[C@H]1O[C@@H](O[C@H]2[C@H](O)[C@@H](O)[C@H](O)O[C@@H]2CO)[C@H](O)[C@@H](O)[C@H]1O` [D‐lactose, Gal‐β‐1,4Glc] here?
A: Its value is “did not interfere”.

Q: For `OC[C@H]1O[C@H](OC[C@H]2O[C@H](O[C@]3(CO)O[C@H](CO)[C@@H](O)[C@@H]3O)[C@H](O)[C@@H](O)[C@@H]2O)[C@H](O)[C@@H](O)[C@H]1O` [D‐raffinose, Gal‐α‐1,6Glc‐α‐1,2Fruc], which “effect on AcmJRL binding to S-protein (in words)” value [3] is on record?
A: The value was “did not interfere”.

Q: For `CO[C@H]1O[C@H](CO)[C@@H](O)[C@H](O)[C@@H]1O` [Me-α-D-Man, methyl α-D-mannopyranoside], which IC50 [4] is on record?
A: Its IC50 is 10700 µM.

Q: For `O=C[C@H](O)[C@@H](O)[C@H](O[C@@H]1O[C@H](CO)[C@@H](O)[C@H](O)[C@H]1O)[C@H](O)CO` [cellobiose, Glc‐β‐1,4‐Glc], which “inhibition of AcmJRL” value [2] is on record?
A: The value was “had no effect”.

Q: For `N[C@H]1C(O)O[C@H](CO)[C@@H](O)[C@@H]1O` (some centres unmarked) [glucosamine], which “inhibition of AcmJRL” value [2] is on record?
A: Its value is “confirmed as ligands”.

Q: With `OC[C@H]1O[C@H](O[C@H]2[C@H](O)[C@@H](O)[C@H](O)O[C@@H]2CO)[C@H](O)[C@@H](O)[C@@H]1O` [maltobiose, Glc‐α‐1,4‐Glc] as the compound, how does the “inhibition of AcmJRL” value [2] read?
A: The value was “showed highest inhibition”.

Q: How did the “binding on Semiotik glycan array (in words)” value [5] turn out when “-3GalNAcβ1-4(L6dTalα1-3)Manα1-3L6dTalα1- [A. hydrophila O34deAc]” was run?
A: Its value is “recognised”.

Q: With -6Manα1- [Mannan] as the compound, how does the “binding on Semiotik glycan array (in words)” value [5] read?
A: Its value is “confirmed as a ligand”.

Q: With “-8(D-Ala1-7)Leg5Acα2-4GlcAβ1-3GlcNAcβ1- [E. coli O161]” as the compound, how does the “binding on Semiotik glycan array (in words)” value [5] read?
A: The value was “recognised”.

Q: With Manα1-6(Manα1-3)Manβ-sp4 [(Ma)3b] as the compound, how does the “binding on Semiotik glycan array (in words)” value [5] read?
A: Its value is “showed no binding”.

Q: How did the RFU [1] turn out when “Man‐α‐1,6(Man‐α‐1,3)Man‐α‐1,6(Man‐α‐1,3)Man‐β [CFG‐GLYCAN ID 310]” was run?
A: The RFU was 410±141 RFU.

Q: What about the “binding response on CFG glycan array (in words)” value ([1]; FITC‐labelled AcmJRL, 5 and 50 μg mL^−1) of the same compound?
A: Its value is “highest binding responses”.

Q: For “pineapple-derived jacalin-related lectin AcmJRL (natural protein)”, which Kd [6] is on record?
A: The Kd was 12.9 µM and 35 µM.

Q: What about the koff [6] of the same compound?
A: Its koff is 0.0194 s⁻¹.

Q: What about the kon [6] of the same compound?
A: The kon was 1490 M⁻¹ s⁻¹.

Q: And the Kd [7]?
A: The Kd was 22.1 µM.

Q: And the koff [7]?
A: Its koff is 0.0122 s⁻¹.

Q: And the kon [7]?
A: The kon was 590 M⁻¹ s⁻¹.

— article PMC10107836 (Chembiochem, 2022)
